Test results reported in ChEMBL document CHEMBL1201862, “PubChem BioAssay data set” (2004).
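How tested: cells in 96-well plates exposed to compound for 48 hours at five concentrations. GI50 is the concentration that inhibits growth by half.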 Calls of active or inactive are those of the source. No stated cut-off is given here; in the data, active = GI50 up to about 1.1 µM and inactive = higher.

Legend:
Assay in all cases: NCI-60 cell line screen, 48 h
K562 = test system: K562
SW-620 = test system: SW-620
UACC-62 = test system: UACC-62
SK-OV-3 = test system: SK-OV-3
EKVX = test system: EKVX
HCC 2998 = test system: HCC 2998
A549 = test system: A549
Malme-3M = test system: Malme-3M
ACHN = test system: ACHN
786-0 = test system: 786-0
HT-29 = test system: HT-29
CAKI-1 = test system: CAKI-1
RXF 393 = test system: RXF 393
MOLT-4 = test system: MOLT-4
SF-539 = test system: SF-539
RPMI-8226 = test system: RPMI-8226

Measured: GI50

CC(=O)c1c(O)c2c([nH]c1=O)CCCC2
inactive: K562 > 100 µM | SW-620 > 100 µM | UACC-62 18.1 µM | SK-OV-3 25.6 µM | EKVX 51.1 µM | HCC 2998 8.05 µM | A549 30 µM | Malme-3M > 100 µM | ACHN > 100 µM | 786-0 > 100 µM | HT-29 24.2 µM | CAKI-1 > 100 µM | RXF 393 22.3 µM | MOLT-4 8.34 µM

CN(C)CCC(/C=C/c1ccccc1)=N\Nc1ccc(Cl)c(Cl)c1
inactive: K562 2.23 µM | SW-620 3.45 µM | SF-539 2.2 µM | UACC-62 2.55 µM | SK-OV-3 4.53 µM | EKVX 3.66 µM | RPMI-8226 3.44 µM | A549 3.13 µM | Malme-3M 14.2 µM | ACHN 1.92 µM | 786-0 2.69 µM | HT-29 2.24 µM | CAKI-1 2.61 µM | RXF 393 2.74 µM | MOLT-4 2.44 µM

O=C(/C=C/c1ccc(Cl)cc1)c1ccncc1
inactive: K562 52.2 µM | SW-620 78 µM | SF-539 25.9 µM | UACC-62 76 µM | SK-OV-3 > 100 µM | EKVX 64.4 µM | HCC 2998 40.4 µM | RPMI-8226 89.3 µM | A549 58.5 µM | Malme-3M > 100 µM | ACHN 35.9 µM | 786-0 76.2 µM | HT-29 22.3 µM | CAKI-1 30.8 µM | RXF 393 21.4 µM | MOLT-4 27 µM

NC(=O)c1csc(C2C=CC(CO)O2)n1 (centres undefined)
inactive: K562 > 100 µM | SW-620 > 100 µM | SF-539 > 100 µM | UACC-62 > 100 µM | SK-OV-3 > 100 µM | EKVX > 100 µM | HCC 2998 > 100 µM | RPMI-8226 > 100 µM | A549 > 100 µM | Malme-3M > 100 µM | ACHN > 100 µM | 786-0 > 100 µM | HT-29 > 100 µM | CAKI-1 > 100 µM | MOLT-4 > 100 µM

Nc1nc2c(c(=O)[n-]1)[n+](CCO)cn2C1OC(CO)C(O)C1O (centres undefined)
inactive: K562 > 100 µM | SW-620 > 100 µM | SF-539 > 100 µM | UACC-62 > 100 µM | SK-OV-3 > 100 µM | EKVX > 100 µM | RPMI-8226 > 100 µM | A549 > 100 µM | Malme-3M > 100 µM | ACHN > 100 µM | 786-0 > 100 µM | HT-29 > 100 µM | CAKI-1 > 100 µM | RXF 393 > 100 µM

C=C(C(=C)P(=S)(C(C)C)C(C)C)P(=S)(C(C)C)C(C)C
inactive: K562 > 100 µM | SW-620 > 100 µM | SF-539 > 100 µM | UACC-62 > 100 µM | SK-OV-3 > 100 µM | EKVX > 100 µM | HCC 2998 > 100 µM | RPMI-8226 > 100 µM | A549 > 100 µM | Malme-3M > 100 µM | ACHN > 100 µM | 786-0 > 100 µM | HT-29 > 100 µM | CAKI-1 > 100 µM | RXF 393 > 100 µM | MOLT-4 > 100 µM

COc1cc2c(cc1OC)C1Cc3cc(OC)c(OC)cc3N1CC2 (centres undefined)
inactive: K562 27.5 µM | SW-620 29.9 µM | UACC-62 26.1 µM | SK-OV-3 31.6 µM | EKVX 27.7 µM | HCC 2998 79.4 µM | RPMI-8226 28.8 µM | A549 26.9 µM | Malme-3M 20.9 µM | ACHN 22.3 µM | 786-0 17.7 µM | HT-29 40 µM | CAKI-1 21.9 µM | MOLT-4 30.8 µM

O=C(O)c1c2c(cc3c(=O)c4ccccc4[nH]c13)CCCC2
inactive: SW-620 65.2 µM | SF-539 > 100 µM | UACC-62 76.7 µM | SK-OV-3 > 100 µM | EKVX > 100 µM | HCC 2998 46.3 µM | RPMI-8226 > 100 µM | A549 > 100 µM | Malme-3M > 100 µM | ACHN > 100 µM | 786-0 72.8 µM | HT-29 > 100 µM | RXF 393 > 100 µM | MOLT-4 > 100 µM

CC(C)c1ccccc1NC(=O)CCc1n[nH]c(=S)o1
inactive: K562 > 50.7 µM | SW-620 > 37.4 µM | SF-539 72.3 µM | UACC-62 > 100 µM | SK-OV-3 > 100 µM | EKVX > 100 µM | HCC 2998 > 100 µM | RPMI-8226 > 48.9 µM | A549 99.8 µM | Malme-3M > 100 µM | ACHN > 81.7 µM | 786-0 > 100 µM | HT-29 > 90.4 µM | CAKI-1 > 100 µM | RXF 393 > 100 µM | MOLT-4 > 100 µM

COC(=O)C1=C(O)c2cc(-c3ccccc3)c(-c3ccccc3)c(C#N)c2NC(=O)C1
inactive: K562 3.27 µM | SF-539 7.33 µM | UACC-62 3.97 µM | EKVX > 100 µM | HCC 2998 34.9 µM | A549 3.5 µM | ACHN 24 µM | 786-0 8.38 µM | HT-29 5.81 µM | CAKI-1 7.03 µM | RXF 393 1.7 µM | MOLT-4 2.46 µM

Fc1ccc(C2SCc3nc4ccccc4n32)cc1Cl (centres undefined)
inactive: K562 16.5 µM | SW-620 36.1 µM | SF-539 18.7 µM | UACC-62 10.1 µM | SK-OV-3 17.5 µM | EKVX 24.3 µM | HCC 2998 16.3 µM | A549 25.8 µM | Malme-3M 7.8 µM | ACHN 25.5 µM | 786-0 27.7 µM | HT-29 37.1 µM | CAKI-1 13 µM | RXF 393 19.4 µM | MOLT-4 23.2 µM

C/C(CC(=O)Nc1ccccc1)=N\NC(N)=S
inactive: K562 > 100 µM | SW-620 > 100 µM | SF-539 > 100 µM | UACC-62 > 100 µM | SK-OV-3 > 100 µM | EKVX > 100 µM | HCC 2998 > 100 µM | RPMI-8226 > 100 µM | A549 > 100 µM | Malme-3M > 100 µM | 786-0 > 100 µM | HT-29 > 100 µM | RXF 393 > 100 µM | MOLT-4 > 100 µM

CSC(C1c2ccccc2N(c2ccc(C)cc2)C2=NC(=O)N(C)C(=O)C21Cl)S(=O)(=O)c1ccc(C)cc1 (centres undefined)
inactive: K562 19.1 µM | SW-620 30.6 µM | SF-539 17.5 µM | UACC-62 21.6 µM | SK-OV-3 42.1 µM | EKVX 35.4 µM | HCC 2998 20.4 µM | RPMI-8226 16 µM | A549 34 µM | Malme-3M 17.2 µM | ACHN 31.4 µM | 786-0 18.5 µM | HT-29 26.2 µM | CAKI-1 19.8 µM | MOLT-4 6.08 µM

COC1CC(n2cc(F)c(N)nc2=O)OC1CO (centres undefined)
inactive: K562 > 100 µM | SW-620 > 100 µM | SK-OV-3 > 100 µM | EKVX > 100 µM | HCC 2998 9.77 µM | RPMI-8226 > 100 µM | A549 > 100 µM | Malme-3M > 100 µM | ACHN > 100 µM | 786-0 > 100 µM | HT-29 > 100 µM | CAKI-1 > 100 µM | RXF 393 > 100 µM | MOLT-4 > 100 µM
